Where “and” joins values, the source holds several entries; their conditions need not be identical. Equal values may be shown once. Values belong to the compound of their own block, whether it stands above or below them.
Assay: solvent given as SMILES

Structure (SMILES): CCC1(CC)c2cc(C=C(C#N)C#N)ccc2-c2ccc(N(C)C)cc21
absorption maximum (in C1CCCCC1): 480 nm
absorption maximum (in CC#N): 474 nm
absorption maximum (in CCO): 478 nm
absorption maximum (in CCOCC): 470 nm
absorption maximum (in CS(C)=O): 490 nm
absorption maximum (in ClCCl): 490 nm
absorption maximum (in c1ccccc1): 480 nm

Structure (SMILES): CC(C)c1ccc2ccc3c(C(C)C)ccc4ccc1c2c43
absorption maximum (in CCCCCC): 345 nm
absorption maximum (in CO): 343 nm
absorption maximum (in ClCCl): 346 nm

Structure (SMILES): F[B-]1(F)N2C(=Nc3cccc4cccc2c34)c2cccc[n+]21
absorption maximum (in CC#N): 350 nm
absorption maximum (in CO): 348 nm
absorption maximum (in CS(C)=O): 351 nm
absorption maximum (in Cc1ccccc1): 354 nm

Structure (SMILES): CC(C)(C)c1ccccc1N(c1ccccc1)c1ccc(S(=O)(=O)c2ccc(S(=O)(=O)c3ccc(N(c4ccccc4)c4ccccc4C(C)(C)C)cc3)cc2)cc1
absorption maximum (in Cc1ccccc1): 348 nm

Structure (SMILES): CCN(CC)c1cc2oc(=O)cc(C)c2cc1C
absorption maximum (in CCO): 442 nm

Structure (SMILES): C=CCOc1ccc(-c2nc3cc(C(NC(=O)OC(C)(C)C)C(=O)OC)ccc3o2)cc1 (stereo unspecified)
absorption maximum (in CC1CCCCC1): 324 nm
absorption maximum (in CC#N): 309 nm
absorption maximum (in CO): 309 nm

Structure (SMILES): CN(C)c1ccc(-n2c(-c3ccncc3)nc3nccnc32)cc1
absorption maximum (in CC#N): 309 nm

Structure (SMILES): CC(C)(C)c1ccc2c(c1)c1cc(C(C)(C)C)ccc1n2-c1c(C#N)c(-n2c3ccc(C(C)(C)C)cc3c3cc(C(C)(C)C)ccc32)c(-n2c3ccc(C(C)(C)C)cc3c3cc(C(C)(C)C)ccc32)c(-n2c3ccc(C(C)(C)C)cc3c3cc(C(C)(C)C)ccc32)c1-n1c2ccc(C(C)(C)C)cc2c2cc(C(C)(C)C)ccc21
absorption maximum (in Cc1ccccc1): 427.95 nm

Structure (SMILES): CC(=O)c1ccn2c3c(c(-c4cc[n+](C)cc4)c2c1)CN(C)C3=O
absorption maximum (in O): 429 nm

Structure (SMILES): NCc1ccc2ccc3cccc4ccc1c2c34
absorption maximum (in CC#N): 341 nm
absorption maximum (in CO): 340 nm
absorption maximum (in ClC(Cl)Cl): 344 nm

Structure (SMILES): CCCCCCCCCCCCCCCCOc1cc(C#Cc2ccc3ccccc3c2-c2c(C#Cc3cc(OCCCCCCCCCCCCCCCC)c(C#Cc4ccc(C=C(C#N)C#N)cc4)cc3OCCCCCCCCCCCCCCCC)ccc3ccccc23)c(OCCCCCCCCCCCCCCCC)cc1C#Cc1ccc(C=C(C#N)C#N)cc1
absorption maximum (in Brc1ccccc1): 442 nm
absorption maximum (in C1CCCCC1): 444 nm
absorption maximum (in C1CCOC1): 425 nm
absorption maximum (in C1COCCO1): 425 nm
absorption maximum (in CCCCCC): 442 nm
absorption maximum (in CCCCCCCCO): 431 nm
absorption maximum (in CCCCOCCCC): 435 nm
absorption maximum (in CCOC(C)=O): 426 nm
absorption maximum (in CCOCC): 429 nm
absorption maximum (in Cc1ccccc1): 436 nm
absorption maximum (in ClC(Cl)(Cl)Cl): 447 nm
absorption maximum (in ClC(Cl)Cl): 446 nm
absorption maximum (in ClCCl): 436 nm

Structure (SMILES): CCCN1C(=O)c2c3c(c4c(c2C1=O)CCc1cc(-c2ccc(N(C)C)cc2)c(OC)cc1-4)-c1cc(OC)c(-c2ccc(N(C)C)cc2)cc1CC3
absorption maximum (in C1CCCCC1): 404 nm
absorption maximum (in C1CCOC1): 409 nm
absorption maximum (in CCOC(C)=O): 407 nm
absorption maximum (in Cc1ccccc1): 412 nm

Structure (SMILES): Cc1ccc2c(c1)c1cc(C)ccc1n2-c1cccc(-n2c3ccc(C)cc3c3cc(C)ccc32)c1C#N
absorption maximum (in Cc1ccccc1): 368 nm

Structure (SMILES): F[B-]1(F)n2cccc2C(c2ccc(-c3c4ccccc4c(-c4ccccc4)c4ccccc34)cc2)=C2C=CC=[N+]21
absorption maximum (in CC#N): 498 nm
absorption maximum (in CCCCCC): 501 nm
absorption maximum (in CCO): 500 nm
absorption maximum (in CN(C)C=O): 502 nm
absorption maximum (in Cc1ccccc1): 505 nm
absorption maximum (in ClCCl): 502 nm

Structure (SMILES): O=S(=O)([O-])c1ccc2c([O-])cc(S(=O)(=O)[O-])cc2c1
absorption maximum (in O): 350 nm

Structure (SMILES): CCCCOC(=O)c1cc(Oc2ccc(OC)cc2)c2c3c(Cl)cc4c5c(cc(Cl)c(c6c(Oc7ccc(OC)cc7)cc(C(=O)OCCCC)c1c26)c53)C(=O)N(c1c(C(C)C)cccc1C(C)C)C4=O
absorption maximum (in Cc1ccccc1): 531 nm

Structure (SMILES): CC1(C)CC(/C=C/c2ccc(N3CCOCCOCCOCCOCC3)cc2)=CC(=C(C#N)C#N)C1
absorption maximum (in C1CCOC1): 500 nm
absorption maximum (in CC#N): 493 nm
absorption maximum (in CCO): 504 nm
absorption maximum (in CCOC(C)=O): 496 nm
absorption maximum (in ClCCl): 502 nm
absorption maximum (in c1ccccc1): 500 nm

Structure (SMILES): CN(C)c1cccc2c1C(=O)c1ccccc1C2=O
absorption maximum (in C1CCCCC1): 487 nm
absorption maximum (in CC1CCCCC1): 487.5 nm
absorption maximum (in CC#N): 502 nm
absorption maximum (in CCC(C)CC): 487 nm
absorption maximum (in CCCCCC): 487.5 nm
absorption maximum (in CCOC(C)=O): 498 nm

Structure (SMILES): Cc1cc(O)c(C(C)C)cc1/N=C/c1ccc([N+](=O)[O-])cc1
absorption maximum (in C1CCCCC1): 385 nm
absorption maximum (in C1CCOC1): 402 nm
absorption maximum (in C1COCCO1): 393 nm
absorption maximum (in CC#N): 392 nm
absorption maximum (in CC(C)(C)O): 407 nm
absorption maximum (in CC(C)O): 404 nm
absorption maximum (in CCCCCC): 383 nm
absorption maximum (in CCCCO): 405 nm
absorption maximum (in CCO): 402 nm
absorption maximum (in CCOC(C)=O): 397 nm
absorption maximum (in CN(C)C=O): 407 nm
absorption maximum (in CO): 399 nm
absorption maximum (in CS(C)=O): 410 nm
absorption maximum (in ClC(Cl)Cl): 398 nm
absorption maximum (in ClCCl): 392 nm
absorption maximum (in O): 395 nm
absorption maximum (in OCCO): 401 nm

Structure (SMILES): COc1ccc2cc(C#Cc3ccc([N+](=O)[O-])cc3)ccc2c1
absorption maximum (in C1CCOC1): 356 nm
absorption maximum (in ClC(Cl)Cl): 360 nm
absorption maximum (in ClCCl): 356 nm

Structure (SMILES): CC1CCC(=CS/C=C/c2ccc(/C=C/SC=C3CCC(C)CC3)cc2)CC1 (stereo unspecified)
absorption maximum (in ClCCl): 350 nm

Structure (SMILES): CC1(C)Nc2cc3nc4cc(F)c(F)cc4nc3cc2N1
absorption maximum (in CCO): 440 nm

Structure (SMILES): COc1ccc(C2=C3C(C)=CC(C=Cc4ccc(C(=O)OC5C[C@H]6CCC5(C)C6(C)C)cc4)=[N+]3[B-](F)(F)n3c(/C=C/c4ccc(C(=O)OC5CC6CCC5(C)C6(C)C)cc4)cc(C)c32)cc1 (stereo partly specified)
absorption maximum (in Cc1ccccc1): 640 nm

Structure (SMILES): CCCCCCCCn1c2ccccc2c(=O)c2ccccc21
absorption maximum (in CS(C)=O): 404 nm

Structure (SMILES): CC(C)(C(=O)c1ccc(N2c3ccccc3C(C)(C)c3ccccc32)cc1)C(=O)c1ccc(N2c3ccccc3C(C)(C)c3ccccc32)cc1
absorption maximum (in Cc1ccccc1): 390 nm

Structure (SMILES): Cc1cccc(-c2[nH]c(=O)n3c2-c2ccccc2C3=O)c1O
absorption maximum (in CC#N): 391 nm
absorption maximum (in CO): 395 nm
absorption maximum (in ClCCl): 392 nm

Structure (SMILES): COCCC1=Cc2nc1ccc1[nH]c(cc1CCOC)c1nc(c(NC(=O)CCCC(=O)O)cc3[nH]c2cc3CCOC)C(CCOC)=C1
absorption maximum (in Cc1ccccc1): 645 nm

Now from value to compound:

absorption maximum (in ClC(Cl)Cl): 784 nm
Structure (SMILES): COc1ccc(C2=c3sc(-c4ccc(OC)cc4)c(-c4ccc(OC)cc4)c3=[N+]3C2=Nc2c(-c4ccc(OC)cc4)c4sc(-c5ccc(OC)cc5)c(-c5ccc(OC)cc5)c4n2[B-]3(F)F)cc1

absorption maximum (in ClCCl): 314 nm
Structure (SMILES): CCCCCCCCOc1ccc(C#Cc2ccc3oc4ccccc4c3c2)c(OCCCCCCCC)c1

absorption maximum (in CC#N): 317 nm
Structure (SMILES): COc1ccc(/C=C/c2ccccc2)cc1

absorption maximum (in ClCCl): 343 nm
Structure (SMILES): c1cc2ccc3ccc(OP4(Oc5ccc6ccc7cccc8ccc5c6c78)=NP(Oc5ccc6ccc7cccc8ccc5c6c78)(Oc5ccc6ccc7cccc8ccc5c6c78)=NP(Oc5ccc6ccc7cccc8ccc5c6c78)(Oc5ccc6ccc7cccc8ccc5c6c78)=N4)c4ccc(c1)c2c34

absorption maximum (in CC#N): 365 nm
Structure (SMILES): COc1ccc(-c2nc(-c3ccc(-c4nc(-c5ccc(OC)cc5)c(-c5ccc(OC)cc5)[nH]4)s3)[nH]c2-c2ccc(OC)cc2)cc1

absorption maximum (in CO): 300 nm
Structure (SMILES): Cc1ccc(-c2nc(-c3cccc(O)c3)[nH]c2-c2ccc(C)cc2)cc1

absorption maximum (in C1CCOC1): 333 nm
Structure (SMILES): C(=C(c1ccccc1)c1ccccc1)c1ccc(-c2cc(-c3ccc(C=C(c4ccccc4)c4ccccc4)cc3)cc(-c3ccc(C=C(c4ccccc4)c4ccccc4)cc3)c2)cc1

absorption maximum (in ClCCl): 490 nm
Structure (SMILES): Fc1ccc(C2=C(c3ccc(F)cc3)c3cccc4c3c(cc3nc5ccccc5nc34)O2)cc1

absorption maximum (in ClCCl): 359 nm and 380 nm
Structure (SMILES): CCCCCC(=O)c1cccc2sc3c(c12)P(=O)(c1ccccc1)c1ccccc1-3 (stereo unspecified)

absorption maximum (in ClC(Cl)Cl): 384 nm
Structure (SMILES): O=C1[C@@H]2[C@H](C(=O)N1c1cccc3cc4ccccc4cc13)[C@@H]1C=C[C@H]2C1

absorption maximum (in C1CCCCC1): 597.5 nm
absorption maximum (in CCOC(C)=O): 598.5 nm
Structure (SMILES): CC1=[N+]2C(=C(c3ccc4c(c3)Cc3ccccc3-4)c3ccc(C)n3[B-]2(F)F)C=C1c1cc2n(c1)[B-](F)(F)[N+]1=CC=CC1=C2c1c(C)cc(C)cc1C

absorption maximum (in ClC(Cl)Cl): 664 nm
Structure (SMILES): CN1C(=CC2=C([O-])C(=Cc3oc4ccccc4[n+]3C)C2=C(C#N)C#N)Sc2ccccc21

absorption maximum (in ClCCl): 400 nm
Structure (SMILES): Clc1ccccc1N1c2c(sc3ccccc23)Sc2sc3ccccc3c21

absorption maximum (in ClC(Cl)Cl): 365 nm
Structure (SMILES): c1ccc2c3c(ccc2c1)C1(c2cc(-c4ccc5ccc6cccc7ccc4c5c67)ccc2-c2ccc(-c4ccc5ccc6cccc7ccc4c5c67)cc21)c1ccc2ccccc2c1O3

absorption maximum (in ClCCl): 311 nm
Structure (SMILES): COc1cc2c(cc1OC)C1=C[C@H](c3ccccc3)C3(C(C#N)=C(C#N)N1CC2)c1cc(Br)ccc1-c1ccc(Br)cc13

absorption maximum (in ClCCl): 500 nm
Structure (SMILES): COc1ccc(-c2c3cc4cc(C)sc4cc3c(-c3ccc(OC)cc3)c3cc4cc(C)sc4cc23)cc1

absorption maximum (in ClCCl): 416 nm
Structure (SMILES): [O-][n+]1c(/C=C/c2ccccc2)nc(Nc2ccccc2)c2c1CCCC2

absorption maximum (in ClC(Cl)Cl): 410.5 nm
Structure (SMILES): COc1ccc(C2=Cc3c4ccccc4cc[n+]3[B-](F)(F)O2)cc1

absorption maximum (in ClCCl): 343 nm
Structure (SMILES): N#C/C(=C(/C#N)c1ccc(-c2ccncc2)cc1)c1ccc(-c2ccncc2)cc1

absorption maximum (in ClC(Cl)Cl): 799 nm
Structure (SMILES): CN(C)c1ccc(C2=[N+]3C(=Nc4c(-c5ccccc5)cc(-c5ccc(N(C)C)cc5)n4[B-]3(F)F)C(c3ccccc3)=C2)cc1

absorption maximum (in CCO): 421 nm
absorption maximum (in ClCCl): 428 nm
absorption maximum (in O): 443 nm
Structure (SMILES): N#CC(C#N)=Cc1ccc(-c2cccc(-c3nc4ccccc4s3)c2O)o1

absorption maximum (in ClCCl): 383 nm
Structure (SMILES): CCOC(=O)c1ccc(C2CC(c3cccc4ccccc34)=NN2c2ccc(OC)cc2)cc1 (stereo unspecified)

absorption maximum (in ClCCl): 378 nm
Structure (SMILES): O=P1(c2ccccc2)c2cccc3c4ccccc4c4ccc1n4c23 (stereo unspecified)

absorption maximum (in ClCCl): 286 nm
Structure (SMILES): c1ccc2c(c1)c1ccccc1c1ccccc21

absorption maximum (in ClC(Cl)Cl): 556 nm
Structure (SMILES): F[B-]1(F)n2cccc2C(c2ccccc2)=C2C=CC(c3cccc(OC4=[N+]5C(=C(c6ccccc6)c6cc(Br)c(Br)n6[B-]5(F)F)C=C4Br)c3)=[N+]21

absorption maximum (in ClC(Cl)Cl): 455 nm
Structure (SMILES): Cc1c2c(c(C)c3ccccc13)-c1c-2ccc2nc3ccccc3nc12

Reference: the Deep4Chem optical property database
